In PubChem BioAssay (NCI):
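Cells were grown in 96-well plates and exposed to each compound for 48 hours at five concentrations; endpoints were interpolated linearly between bracketing concentrations, or set to the highest concentration if not reached. GI50: concentration for 50% inhibition of growth. At the TGI there is no net growth.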

What was measured:
Assay in all cases: DTP human tumour cell line panel, 48 h
786-0 renal = tested on: 786-0 renal
A498 renal = tested on: A498 renal
A549 NSCLC = tested on: A549 NSCLC
ACHN renal = tested on: ACHN renal
BT-549 breast = tested on: BT-549 breast
CAKI-1 renal = tested on: CAKI-1 renal
CCRF-CEM leukemia = tested on: CCRF-CEM leukemia
COLO 205 colon = tested on: COLO 205 colon
DU-145 prostate = tested on: DU-145 prostate
EKVX NSCLC = tested on: EKVX NSCLC
HCC-2998 colon = tested on: HCC-2998 colon
HCT-116 colon = tested on: HCT-116 colon
HCT-15 colon = tested on: HCT-15 colon
HL-60(TB) leukemia = tested on: HL-60(TB) leukemia
HOP-62 NSCLC = tested on: HOP-62 NSCLC
HOP-92 NSCLC = tested on: HOP-92 NSCLC
HS 578T breast = tested on: HS 578T breast
HT29 colon = tested on: HT29 colon
IGROV1 ovarian = tested on: IGROV1 ovarian
K-562 leukemia = tested on: K-562 leukemia
KM12 colon = tested on: KM12 colon
LOX IMVI melanoma = tested on: LOX IMVI melanoma
M14 melanoma = tested on: M14 melanoma
MALME-3M melanoma = tested on: MALME-3M melanoma
MCF7 breast = tested on: MCF7 breast
MDA-MB-231 breast = tested on: MDA-MB-231 breast
MDA-MB-435 = tested on: MDA-MB-435
MOLT-4 leukemia = tested on: MOLT-4 leukemia
NCI-H226 lung = tested on: NCI-H226 lung
NCI-H23 lung = tested on: NCI-H23 lung
NCI-H460 lung = tested on: NCI-H460 lung
NCI-H522 lung = tested on: NCI-H522 lung
NCI/ADR-RES ovarian = tested on: NCI/ADR-RES ovarian
OVCAR-3 ovarian = tested on: OVCAR-3 ovarian
OVCAR-4 ovarian = tested on: OVCAR-4 ovarian
OVCAR-5 ovarian = tested on: OVCAR-5 ovarian
OVCAR-8 ovarian = tested on: OVCAR-8 ovarian
PC-3 prostate = tested on: PC-3 prostate
RPMI-8226 leukemia = tested on: RPMI-8226 leukemia
RXF 393 renal = tested on: RXF 393 renal
SF-268 CNS = tested on: SF-268 CNS
SF-295 CNS = tested on: SF-295 CNS
SF-539 CNS = tested on: SF-539 CNS
SK-MEL-2 melanoma = tested on: SK-MEL-2 melanoma
SK-MEL-28 melanoma = tested on: SK-MEL-28 melanoma
SK-MEL-5 melanoma = tested on: SK-MEL-5 melanoma
SK-OV-3 ovarian = tested on: SK-OV-3 ovarian
SN12C renal = tested on: SN12C renal
SNB-19 CNS = tested on: SNB-19 CNS
SNB-75 CNS = tested on: SNB-75 CNS
SR leukemia = tested on: SR leukemia
SW-620 colon = tested on: SW-620 colon
T-47D breast = tested on: T-47D breast
TK-10 renal = tested on: TK-10 renal
U251 CNS = tested on: U251 CNS
UACC-257 melanoma = tested on: UACC-257 melanoma
UACC-62 melanoma = tested on: UACC-62 melanoma
UO-31 renal = tested on: UO-31 renal

SMILES: CN1C/C=C/CCOc2cccc(c2)-c2ccnc(n2)Nc2cccc(c2)C1
- GI50 (786-0 renal): 31.7 nM
- TGI (786-0 renal): 203 nM
- GI50 (A498 renal): 35.6 nM
- TGI (A498 renal): 110 nM
- GI50 (A549 NSCLC): 39.4 nM
- TGI (A549 NSCLC): 1120 nM
- GI50 (ACHN renal): 30.7 nM
- TGI (ACHN renal): 1450 nM
- GI50 (BT-549 breast): 39.8 nM
- TGI (BT-549 breast): 210 nM
- GI50 (CAKI-1 renal): 39 nM
- TGI (CAKI-1 renal): 460 nM
- GI50 (CCRF-CEM leukemia): 38.6 nM
- GI50 (COLO 205 colon): 20.4 nM
- TGI (COLO 205 colon): 44.2 nM
- GI50 (DU-145 prostate): 40.2 nM
- TGI (DU-145 prostate): 1400 nM
- GI50 (EKVX NSCLC): 50.1 nM
- TGI (EKVX NSCLC): 666 nM
- GI50 (HCC-2998 colon): 48 nM
- TGI (HCC-2998 colon): 623 nM
- GI50 (HCT-116 colon): 27.7 nM
- TGI (HCT-116 colon): 1080 nM
- GI50 (HCT-15 colon): 36 nM
- TGI (HCT-15 colon): 3180 nM
- GI50 (HL-60(TB) leukemia): 25.9 nM
- TGI (HL-60(TB) leukemia): 94.1 nM
- GI50 (HOP-62 NSCLC): 42.2 nM
- TGI (HOP-62 NSCLC): 376 nM
- GI50 (HOP-92 NSCLC): 42.8 nM
- TGI (HOP-92 NSCLC): 242 nM
- GI50 (HS 578T breast): 36.7 nM
- TGI (HS 578T breast): 438 nM
- GI50 (HT29 colon): 37.6 nM
- TGI (HT29 colon): 416 nM
- GI50 (IGROV1 ovarian): 32.4 nM
- TGI (IGROV1 ovarian): 338 nM
- GI50 (K-562 leukemia): 98.9 nM
- TGI (K-562 leukemia): > 20800 nM
- GI50 (KM12 colon): 33.3 nM
- TGI (KM12 colon): 176 nM
- GI50 (LOX IMVI melanoma): 24.8 nM
- TGI (LOX IMVI melanoma): 1120 nM
- GI50 (M14 melanoma): 39.1 nM
- TGI (M14 melanoma): 181 nM
- GI50 (MALME-3M melanoma): 46.9 nM
- TGI (MALME-3M melanoma): 179 nM
- GI50 (MCF7 breast): 30.9 nM
- TGI (MCF7 breast): 1170 nM
- GI50 (MDA-MB-231 breast): 73.1 nM
- TGI (MDA-MB-231 breast): 1080 nM
- GI50 (MDA-MB-435): 36.6 nM
- TGI (MDA-MB-435): 153 nM
- GI50 (MOLT-4 leukemia): 39.6 nM
- TGI (MOLT-4 leukemia): 959 nM
- GI50 (NCI-H226 lung): 34.7 nM
- TGI (NCI-H226 lung): 442 nM
- GI50 (NCI-H23 lung): 57.7 nM
- TGI (NCI-H23 lung): 289 nM
- GI50 (NCI-H460 lung): 34.7 nM
- TGI (NCI-H460 lung): 352 nM
- GI50 (NCI-H522 lung): 52.2 nM
- TGI (NCI-H522 lung): 233 nM
- GI50 (NCI/ADR-RES ovarian): 56.1 nM
- TGI (NCI/ADR-RES ovarian): 963 nM
- GI50 (OVCAR-3 ovarian): 33.6 nM
- TGI (OVCAR-3 ovarian): 1230 nM
- GI50 (OVCAR-4 ovarian): 108 nM
- TGI (OVCAR-4 ovarian): 1310 nM
- GI50 (OVCAR-5 ovarian): 32.3 nM
- TGI (OVCAR-5 ovarian): 2080 nM
- GI50 (OVCAR-8 ovarian): 41.2 nM
- TGI (OVCAR-8 ovarian): 1260 nM
- GI50 (PC-3 prostate): 51.9 nM
- TGI (PC-3 prostate): 1390 nM
- GI50 (RPMI-8226 leukemia): 58 nM
- TGI (RPMI-8226 leukemia): 879 nM
- GI50 (RXF 393 renal): 20.7 nM
- TGI (RXF 393 renal): 44.7 nM
- GI50 (SF-268 CNS): 42.5 nM
- TGI (SF-268 CNS): 264 nM
- GI50 (SF-295 CNS): 32.1 nM
- TGI (SF-295 CNS): 434 nM
- GI50 (SF-539 CNS): 33.8 nM
- TGI (SF-539 CNS): 155 nM
- GI50 (SK-MEL-2 melanoma): 37.4 nM
- TGI (SK-MEL-2 melanoma): 125 nM
- GI50 (SK-MEL-28 melanoma): 34.9 nM
- TGI (SK-MEL-28 melanoma): 188 nM
- GI50 (SK-MEL-5 melanoma): 31.8 nM
- TGI (SK-MEL-5 melanoma): 222 nM
- GI50 (SK-OV-3 ovarian): 174 nM
- TGI (SK-OV-3 ovarian): 3820 nM
- GI50 (SN12C renal): 44.2 nM
- TGI (SN12C renal): 2730 nM
- GI50 (SNB-19 CNS): 57.4 nM
- TGI (SNB-19 CNS): 4400 nM
- GI50 (SNB-75 CNS): 39 nM
- TGI (SNB-75 CNS): 184 nM
- GI50 (SR leukemia): 20.1 nM
- GI50 (SW-620 colon): 39.6 nM
- TGI (SW-620 colon): 969 nM
- GI50 (T-47D breast): 43.7 nM
- TGI (T-47D breast): 447 nM
- GI50 (TK-10 renal): 48 nM
- TGI (TK-10 renal): 506 nM
- GI50 (U251 CNS): 42.1 nM
- TGI (U251 CNS): 1070 nM
- GI50 (UACC-257 melanoma): 50.5 nM
- TGI (UACC-257 melanoma): 225 nM
- GI50 (UACC-62 melanoma): 32.8 nM
- TGI (UACC-62 melanoma): 128 nM
- GI50 (UO-31 renal): 25.1 nM
- TGI (UO-31 renal): 84.9 nM
